Experiments:
c-fos mRNA = assay: Expression of c-fos mRNA in HepG2 cells stimulated with PMA (homogeneous bead-based detection oligonucleotide assay, confocal imaging); format: cell-based; details: for Mean average fluorescence signal intensity/bead pixel: 1 h
Procedure: (§1) Fully automated dual-channel confocal imaging was performed with two independent cooled CCD detectors. Excitation wavelengths were 532 nm and 633 nm, a dichroic beam splitter with 630 nm was used and emission filters were 565/50 nm and 690/40 nm. Laser power was ˜500 μW for both wavelengths, measured at the entrance of the objective. Exposure times were usually in the range of 500-1000 ms.
An image of the sample was acquired at 565 nm by the first CCD detector. This image is called the signal image. At this wavelength, the emission of the detection oligonucleotides is seen. Therefore, in principle one can see the fluorescence emission of both the unbound detection oligonucleotides as well as the detection oligonucleotides bound specifically to the analyte (and consequently via the capture oligonucleotides to the beads). To distinguish these signals from each other, the present invention teaches to minimize the emission of the unbound detection oligonucleotides by the use of complementary quencher oligonucleotides. The signal intensity on the beads is linear dependent on the analyte concentration, i.e. in the present example the mRNA concentration.
In addition, an image of the sample was acquired at 690 nm by the second CCD detector. This image is called the reference image. At this wavelength, the emission of the biotinylated red oxazine dye is seen. The fluorescence of the biotinylated red oxazine dye bound to the beads can be seen as a red ring in the reference image (see FIG. 6, left picture). This emission of the dyes bound to the beads can be distinguished from the background emission of the unbound biotinylated red oxazine dye through threshold techniques. This fluorescence intensity is constant and not dependent on the mRNA analyte concentration, see FIG. 5 for illustration. At extremely high mRNA concentrations it may become inversely related to the mRNA concentrations due to limited streptavidin binding sites, however, under physiological conditions and in the experiments presented here this was not the case.
The analysis of the images was performed with image analysis software as follows. Segmentation of the beads from the background was performed on a pixel-basis in the reference image. […] A mask of these rings corresponding to detected beads was generated from the reference image. This mask was applied to the signal image (see FIG. 6, right picture). Areas within the outer boundary of the ring were evaluated for fluorescence intensity stemming from the DO-analyte-CO complex bound to the bead. […] Such local background intensity was then subtracted from the signal intensity.
The final result was the mean fluorescence intensity/bead pixel of the signal image. In general, the intensity was averaged over all correctly detected beads of the image. The beads were usually comprised in wells of micro- or nanotiter plates and in some cases, several images were taken of each well. In this instance, the intensity was averaged over all images of one well.
HepG2 cells were seeded at a density of 2*10^6 cells in 10 ml medium/plate (corresponding to 2*10^5 cells/ml) in nine 10 cm tissue culture plates (Greiner bio-one, catalogue no. 664160) in DMEM-F12 (Gibco, catalogue no. 31331-028) supplemented with 10% FCS (Gibco, catalogue no. 10500-064). The cells were incubated for 48 h at 37° C. with 5% CO2. Then medium was changed to DMEM (Sigma, catalogue no. D 5921) supplemented with 0.1% sterile filtered HSA (Sigma, catalogue no. A 1653) and incubation was continued for 24 h at 37° C. with 5% CO2. Then the cells were incubated with PMA (Phorbol 12-myristate 13-acetate, Sigma, catalogue no. P1585) for 1 h at 37° C. and 5% CO2 to induce expression of c-fos. 500 μl of appropriate PMA dilutions in DMEM with 0.1% HSA were added, for final concentrations refer to table 4 below.
One control plate was used for cell counting, the final cell number was 1.5*10^7 cells/plate. […]

CYP1A1 mRNA = assay: Expression of cyp1A1 mRNA in HepG2 cells stimulated with 3-methylcholanthrene (homogeneous bead-based detection oligonucleotide assay); format: cell-based; details: human, 24 h 3-MC, each of three plates, standard deviation 0.05 μM between plates
Procedure: as §1
An image of the sample was acquired at 565 nm by the first CCD detector. This image is called the signal image. At this wavelength, the emission of the detection oligonucleotides is seen. Therefore, in principle one can see the fluorescence emission of both the unbound detection oligonucleotides as well as the detection oligonucleotides bound specifically to the analyte (and consequently via the capture oligonucleotides to the beads). […]
In addition, an image of the sample was acquired at 690 nm by the second CCD detector. […] The fluorescence of the biotinylated red oxazine dye bound to the beads can be seen as a red ring in the reference image (see FIG. 6, left picture). […] This fluorescence intensity is constant and not dependent on the mRNA analyte concentration, see FIG. 5 for illustration. […]
The analysis of the images was performed with image analysis software as follows. […] A mask of these rings corresponding to detected beads was generated from the reference image. […]

Cyp1A1 = Cyp1A1 induction by 3-methylcholanthrene, publication of Delescluse et al.; read-out: EC50 roughly estimated from a published Northern Blot; cited from earlier work

CCCCCCCCCCCCCC(=O)O[C@@H]1[C@@H](C)[C@@]2(O)[C@@H](C=C(CO)C[C@]3(O)C(=O)C(C)=C[C@@H]23)[C@@H]2C(C)(C)[C@]12OC(C)=O [PMA, Phorbol 12-myristate 13-acetate]
average expression rate of c-fos mRNA (c-fos mRNA; 100 nM PMA, 7.2*10^4 lysed cells per well): 42 copies mRNA/cell | c-fos mRNA copy number per well (c-fos mRNA; 100 nM PMA, 24 μl of lysate, from the calibration of example 1a): 3.03*10^6 copies mRNA/well | EC50 (c-fos mRNA; HepG2 cells, 1 h PMA, read-out: EC50 of increase in c-fos expression): 484 nM | Mean average fluorescence signal intensity/bead pixel (c-fos mRNA; HepG2 cells, PMA 0.5 nM): 1.51 | Mean average fluorescence signal intensity/bead pixel (c-fos mRNA; HepG2 cells, PMA 1 nM): 1.53 | Mean average fluorescence signal intensity/bead pixel (c-fos mRNA; HepG2 cells, PMA 10 nM): 4.84 | Mean average fluorescence signal intensity/bead pixel (c-fos mRNA; HepG2 cells, PMA 100 nM): 14.29 | Mean average fluorescence signal intensity/bead pixel (c-fos mRNA; HepG2 cells, PMA 500 nM): 24.44 | Mean average fluorescence signal intensity/bead pixel (c-fos mRNA; HepG2 cells, PMA 1000 nM): 30.03

Cc1ccc2cc3c(ccc4ccccc43)c3c2c1CC3 [3-MC, 3-methylcholanthrene]
EC50 at 24 h (CYP1A1 mRNA): 800 nM | EC50 (Cyp1A1): ~500 nM
